Measurements reported in patent publication US20060088529A1, “Bispecific monoclonal antibodies to IL-12 and IL-18” (priority 2000, published 2006).

How the values were obtained:
NK-92 cells = assay: IFN-γ production in NK-92 cells (ELISA); type: cell-based, human; conditions: IL-12 10 pM, 16 to 24 hours
Procedure: (§1) Two assays show the bioactivity of IL-12 and IL-18 alone. NK-92 is a natural killer line derived from a patient with malignant […] lymphoma. KG-1 is a myelomonocytic line derived from a patient with acute myelogenous leukemia. NK-92 and KG-1 cells constitutively express the IL-12 and IL-18 receptors, respectively.
(§2) KG-1 cells were cultured in serum-free medium for 24 hours, and then plated at 1×10^6 cells/ml in 96-well plates. As indicated, IL-18 (50 nM) or DEX (20 nM) were added. NK-92 cells were cultured in the presence of 10 U/ml IL-2, and plated at 2.5×10^4 viable (Trypan Blue negative) cells/ml in 96-well plates. As indicated, IL-12 (10 pM) or DEX (20 nM) were added. The KG-1 and NK-92 cells were incubated for 16 to 24 hours, and the amount of IFN-γ in the culture medium was determined using the Biosource Cytoscreen IFN-γ ELISA kit.

KG-1 cells = assay: IFN-γ production in KG-1 cells (ELISA); type: cell-based, human; conditions: IL-18 50 nM, 16 to 24 hours
Procedure: as §1, §2

Substance | IFN-γ production (NK-92 cells) | IFN-γ production (KG-1 cells)
Interleukin-12 [IL-12] | induce IFN-γ production | –
Interleukin-18 [IL-18] | – | induce IFN-γ production
